Assay results from patent US20050234073A1, “Methods of inhibiting inflammation” (priority 2003, published 2005).
Substitutions are numbered along the chain they refer to.

T1: MTP (Mus musculus, UniProt O08601)
T1 construct: Splenocyte lysates contained measurable triglyceride transfer activity; endogenous in cells; host or cells: primary mouse splenocytes (crude lysate)
T1 sequence (O08601 22-894): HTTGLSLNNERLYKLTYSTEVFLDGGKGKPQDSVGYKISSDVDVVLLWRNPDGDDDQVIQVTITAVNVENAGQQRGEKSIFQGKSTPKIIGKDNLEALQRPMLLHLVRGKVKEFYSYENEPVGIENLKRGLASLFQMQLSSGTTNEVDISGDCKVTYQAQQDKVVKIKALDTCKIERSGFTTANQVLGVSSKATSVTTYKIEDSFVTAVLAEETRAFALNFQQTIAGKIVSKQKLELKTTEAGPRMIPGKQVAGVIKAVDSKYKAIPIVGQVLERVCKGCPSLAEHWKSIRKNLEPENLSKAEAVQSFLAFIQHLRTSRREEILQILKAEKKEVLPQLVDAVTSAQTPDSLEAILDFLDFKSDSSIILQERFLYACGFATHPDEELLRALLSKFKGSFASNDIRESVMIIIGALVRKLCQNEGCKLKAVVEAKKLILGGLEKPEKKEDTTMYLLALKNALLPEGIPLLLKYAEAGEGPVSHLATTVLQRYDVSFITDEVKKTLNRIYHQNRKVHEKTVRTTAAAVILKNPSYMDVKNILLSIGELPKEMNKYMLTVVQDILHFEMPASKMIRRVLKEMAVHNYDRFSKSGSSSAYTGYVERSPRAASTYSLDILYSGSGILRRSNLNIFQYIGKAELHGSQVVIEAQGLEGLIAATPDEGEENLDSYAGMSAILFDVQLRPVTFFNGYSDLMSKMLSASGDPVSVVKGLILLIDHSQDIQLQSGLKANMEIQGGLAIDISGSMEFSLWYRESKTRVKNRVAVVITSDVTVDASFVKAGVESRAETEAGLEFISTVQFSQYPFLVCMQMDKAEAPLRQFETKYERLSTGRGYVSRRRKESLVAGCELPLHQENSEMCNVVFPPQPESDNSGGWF
T1 sequence (P09103 20-509 partner): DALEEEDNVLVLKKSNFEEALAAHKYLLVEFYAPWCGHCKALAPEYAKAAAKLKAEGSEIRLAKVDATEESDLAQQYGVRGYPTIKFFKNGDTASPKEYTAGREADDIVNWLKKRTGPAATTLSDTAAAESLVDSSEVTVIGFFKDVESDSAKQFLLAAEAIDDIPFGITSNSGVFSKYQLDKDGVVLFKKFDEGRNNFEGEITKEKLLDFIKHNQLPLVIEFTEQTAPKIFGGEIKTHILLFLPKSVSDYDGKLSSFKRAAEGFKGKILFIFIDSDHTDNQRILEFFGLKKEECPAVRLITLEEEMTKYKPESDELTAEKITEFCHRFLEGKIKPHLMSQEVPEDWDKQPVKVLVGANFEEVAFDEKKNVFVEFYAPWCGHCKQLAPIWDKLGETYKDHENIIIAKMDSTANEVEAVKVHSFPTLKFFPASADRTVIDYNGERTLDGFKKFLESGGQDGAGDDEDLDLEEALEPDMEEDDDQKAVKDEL

T2: recombinant murine CD1d (Mus musculus, UniProt P11609)
T2 construct: made in house; host or cells: baculovirus expression system (CD1d); rat liver (MTP)
T2 sequence (P11609 22-305 limits assumed): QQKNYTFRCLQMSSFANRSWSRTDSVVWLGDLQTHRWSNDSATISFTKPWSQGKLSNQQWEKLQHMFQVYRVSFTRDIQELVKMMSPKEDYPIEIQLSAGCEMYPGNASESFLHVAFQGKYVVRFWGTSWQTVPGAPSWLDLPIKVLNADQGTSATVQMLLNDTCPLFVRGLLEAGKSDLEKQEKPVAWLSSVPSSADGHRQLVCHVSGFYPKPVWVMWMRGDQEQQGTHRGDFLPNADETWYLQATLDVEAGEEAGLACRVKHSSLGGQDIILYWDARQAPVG
T2 sequence (P01887 21-119 partner): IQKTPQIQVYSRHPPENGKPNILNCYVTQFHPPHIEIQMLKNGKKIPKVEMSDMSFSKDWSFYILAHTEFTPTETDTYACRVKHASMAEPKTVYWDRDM

B1: MTP: microsomal triglyceride transfer protein purified from rat liver (>95% pure by SDS-PAGE) (protein)
chain 1: T1 sequence (O08601 22-894) with G633K, K634G, A635T, V779L, E851Q
chain 2: T1 sequence (P09103 20-509 partner)

Columns and labels:
C1Rd cells = experiment: C1Rd cell CD1d-mediated activation of human peripheral blood derived iNKT cell line with PMA (IFN-gamma); assay type: cell-based; settings: limiting concentration of PMA
Method: FIG. 20E is a line chart showing IFN-gamma production in C1Rd cells cultured with BMS197636 or vehicle and incubated with NKT cell lines derived from human peripheral blood in the presence of 1 ng/mL PMA.
APCs were incubated with 100 ng/mL α-galcer (kindly provided by Dr. H. Ploegh) for 3 hours, washed three times in PBS and aliquoted into a 96 well plate at 10^6 cells/mL. DN32 cells were added at 1:1 E:T ratio unless otherwise indicated. CD4^+ cells were isolated from spleens of OT-II transgenic mice using positive selection on CD4 magnetic beads (Miltenyi Biotec) and incubated with APCs and 100 μg/mL ovalbumin. The 24.8 NKT cell line was incubated with APCs in the absence of added antigen at E:T=2:1 unless otherwise indicated. Mouse IL-2 production was assessed by ELISA (OptEIA, BD PharMingen) of 24 or 40 hour culture supernatants. APCs were treated with BMS212122 (10 uM dissolved in DMSO; kindly provided by Bristol Myers Squibb, New Jersey) as indicated and washed prior to addition of T or NKT cells. […]
C1Rd is a human B cell line transfected with human CD1d. […] Incubation of C1Rd cells with BMS212122, but not the vehicle, inhibited the presentation of α-galcer as determined by a reduction in IL-2 secretion (FIG. 20D).

MTP = target: T1, MTP; experiment: Triglyceride transfer assay in splenocyte lysates; assay type: biochemical; settings: splenocyte lysate with inhibitor added
Method: FIG. 15C is a line graph showing triglyceride transfer activity in 100 ug splenocyte lysate (Δ), 50 μg splenocyte lysate (◯), 100 μg splenocyte lysate with BMS197636 (▴), and 50 μg splenocyte lysate with BMS197636 (●). Assays were in triplicate with standard deviations less than 10% of percent transfer at 3 hours.
(§1) The triglyceride transfer activity of MTP was measured using donor phospholipids vesicles (Chylos Inc.) as described. PE transfer was done by overnight coating of a microtiter plate with 2 ug per well recombinant murine CD1d purified by baculovirus expression system. Wells were washed with PBS, incubated with PBS containing 0.5% isopropanol for 2 hours at 37° C., and washed again with PBS. […] Fluorescence was read with a fluorescence plate reader (7620 Microplate Fluorimeter; Cambridge Technology, Watertown, Mass.) using 460 nm excitation and 530 nm emission wavelengths.
In this assay, MTP function is assessed by studying the transfer of fluorescently labeled triglycerides embedded in donor phospholipid vesicles to acceptor vesicles. During the transfer, the amount of triglyceride associated with MTP can be measured as an increase in fluorescence over time. […]

recombinant murine CD1d = target: T2, recombinant murine CD1d; experiment: PE transfer assay from MTP to recombinant CD1d; assay type: biochemical; settings: 0.5 μg purified MTP, PE:NBD vesicles, 2 hours 37 degrees
Method: FIG. 16A is a bar chart showing purified MTP transfers a lipid to recombinant CD1d in vitro. Two micrograms of BSA or recombinant CD1d were coated onto microtiter wells and incubated with either PE:NBD vesicles alone or PE:NBD vesicles plus 0.5 μg purified MTP. Results are representative of five independent experiments. *, p<0.005
as §1, with “system.” for “system. Wells were washed with PBS, incubated with PBS containing 0.5% isopropanol for 2 hours at 37° C., and washed again with PBS.”
Recombinant β2m associated CD1d was coated onto a 96 well plate and incubated with liposomes containing a 6:1 ratio of unlabeled PE:NBD-labeled PE. […] Lipids bound to CD1d were eluted with isopropanol, transferred to a black microtiter plate, and the level of fluorescence determined. […] Assuming equal efficiency of MTP-mediated transfer of labeled versus unlabeled PE to the CD1d pocket and that all CD1d molecules bound to the plastic in an orientation with the groove solvent accessible, we calculated that the maximum limit of NBD-labeled PE that could be transferred to CD1d was 4.7 picomoles in this assay. […]

Row | Molecule | CD1d-mediated activation of human peripheral blood derived iNKT cell line (C1Rd cells) | triglyceride transfer activity of splenocyte lysates (MTP) | increase in fluorescence above background (PE transferred to CD1d) (recombinant murine CD1d) [fold]
1 | 9-[4-[[[4′-(trifluoromethyl)[1,1′-biphenyl]-2-yl]carbonyl]amino]butyl-piperidin-4-yl]-N-(2,2,2-trifluoroethyl)-9H-fluorene-9-carboxamide [BMS197636] | dose-dependent inhibition | abrogated | –
2 | B1 | – | – | 5
